Results: patent US8318670B2, “Antigens targeted by pathogenic AI4 T cells in type 1 diabetes and uses thereof” (Albert Einstein College of Medicine of Yeshiva University, priority 2004, dated 2012)
pEC50: −log10 of the molar value. Where no end group is shown, it is not given here.

Tests used:
[1] = system: T cells cultured from NOD islets; assay: IFN-γ ELISPOT of T cells cultured from NOD islets with peptide-pulsed APC; assay type: cell-based, mouse; conditions: 1 μM peptide, T cells from pooled islets of 11-week-old NOD mice, 40 h
Protocol: ELISPOT assay. ELISPOT plates (MAHA S45 10; Millipore, Billerica, Mass.) were precoated with anti-murine IFN-γ Ab (R4-6A2; BD Biosciences Pharmingen, San Diego, Calif.) and blocked with 1% BSA (Fraction V, Sigma-Aldrich, St. Louis, Mo.) in PBS. APC (Mitomycin C-treated NOD splenocytes) were added at 2×10^4 cells/well and pulsed for 1 h with 1 μM of each peptide (MimA2, NRP-V7, INS-19, INS BC, GAD65206, GAD65546). Cultured islet T cells were added at 2×10^4 cells/well and plates were incubated at 37° C. for 40 h. IFN-γ secretion was detected with a second, biotinylated anti-murine IFN-γ Ab (XMG1.2; BD Biosciences Pharmingen, San Diego, Calif.). Spots were developed using streptavidin-alkaline phosphatase (Zymed Laboratories, Inc., South San Francisco, Calif.) and 5-bromo-4-chloro-3-indolyl-phosphate/nitroblue tetrazolium chloride substrate (Sigma-Aldrich, St. Louis, Mo.).
IFN-γ ELISPOT. ELISPOT plates (MAHA S45 10; Millipore) were coated with anti-murine IFN-γ Ab (R4-6A2; BD Biosciences Pharmingen) and blocked with 1% BSA (Sigma-Aldrich) in PBS. APC (Mitomycin C-treated NOD splenocytes) were added at 2×10^4 cells/well and pulsed with 1 μM peptide. Cultured islet T cells were added at 2×10^4 cells/well and plates were incubated at 37° C. for 40 h. Secreted IFN-γ was detected with a second, biotinylated anti-murine IFN-γ Ab (XMG1.2; BD Biosciences Pharmingen). Spots were developed using streptavidin-alkaline phosphatase (Zymed Laboratories) and 5-bromo-4-chloro-3-indolyl-phosphate/nitroblue tetrazolium chloride substrate (Sigma-Aldrich). For all incubation steps, plate bottoms were covered with aluminum foil to distribute heat uniformly across the plate as described (Kalyuzhny and Stark, 2001).

AI4 CTL = assay: 51Cr-release cytotoxicity assay, AI4 CTL against peptide-pulsed RMA-S target cells; assay type: cell-based, mouse; conditions: for AI4 CTL response to natural peptides with AI4-preferred motif: RMA-S targets, peptide 0.1 nM to 1 μM (FIG. 11A); for AI4 cytotoxic response towards peptide-pulsed RMA-S target cells: mimotope and alanine-substituted peptides, varying concentrations, E:T ratio of 40
Protocol: Cytotoxicity assays for screening of HPLC fractions and peptide libraries. AI4 CTL were generated by culturing splenocytes from NOD.AI4αβTg mice with IFN-γ-treated NIT-1 cells and 12.5 U/ml IL-2 as described (DiLorenzo et al., 2002). NY8.3 CTL were generated by culturing splenocytes from 8.3-NOD mice with mitomycin C-treated NOD splenocytes pulsed with 10 nM NRP-A7 peptide as described (DiLorenzo et al., 2002). CTL were used in 16 h ^51Cr-release cytotoxicity assays to test for recognition of peptide-pulsed target cells at an E:T ratio of 40:1 as described (DiLorenzo et al., 2002). TAP-deficient cell lines RMA-S, RMA-S/K^d, T2, and T2-K^d were used as targets. Synthetic peptides or peptide library mixes were used at concentrations indicated in the figures, and 1.6×10^9 NIT-1 cell equivalents of peptide were used for HPLC fraction screening assays.
Cytotoxicity Assay. AI4 CTL were generated by culturing splenocytes from NOD.AI4αβ Tg mice with IFN-γ-treated NIT-1β cells (Hamaguchi et al., 1991) and IL-2 as described (DiLorenzo et al., 2002). CTL were used in 16 h ^51Cr-release cytotoxicity assays to test for recognition of peptide-pulsed target cells at an effector to target ratio of 40:1 as described (DiLorenzo et al., 2002). TAP-deficient RMA-S cells (Kerre et al., 1986) were used as targets.

H-2K^d = target: T1, H-2K^d (Mus musculus, UniProt P01902); conditions: cited from earlier work
T1 sequence (P01902 22-368): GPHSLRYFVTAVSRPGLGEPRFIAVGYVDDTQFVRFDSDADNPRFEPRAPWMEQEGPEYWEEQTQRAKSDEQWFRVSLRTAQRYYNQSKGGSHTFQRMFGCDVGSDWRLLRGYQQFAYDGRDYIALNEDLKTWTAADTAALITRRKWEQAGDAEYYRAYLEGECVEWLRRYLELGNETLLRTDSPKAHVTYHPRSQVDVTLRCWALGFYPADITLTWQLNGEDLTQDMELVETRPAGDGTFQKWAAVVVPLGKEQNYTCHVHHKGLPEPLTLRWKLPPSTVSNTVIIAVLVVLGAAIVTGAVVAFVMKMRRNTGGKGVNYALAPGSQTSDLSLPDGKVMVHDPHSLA
T1 sequence (P01887 21-119 partner): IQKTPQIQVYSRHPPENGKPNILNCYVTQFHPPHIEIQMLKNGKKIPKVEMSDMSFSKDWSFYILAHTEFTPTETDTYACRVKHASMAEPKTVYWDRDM

Sequence: FYTPMSRREV (listed as Mus musculus) [INS BC, murine insulin 2 B25-C34]
- IFN-γ spots in response to peptide [1]: No spots were detected

Sequence: FTDESYLEL [FSL9, natural peptide of polymyositis/scleroderma autoantigen 2]
- AI4 CTL response to natural peptides with AI4-preferred motif (AI4 CTL): nonreacting

Sequence: HEAESYML [HL9, natural peptide of calcitonin receptor precursor]
- AI4 CTL response to natural peptides with AI4-preferred motif (AI4 CTL): nonreacting

Sequence: TNKENYTEL [TL9, natural peptide of stromal cell derived factor receptor 1]
- AI4 CTL response to natural peptides with AI4-preferred motif (AI4 CTL): nonreacting

Sequence: VMLENYTHL (listed as Mus musculus) [VML9, natural peptide, similar to KRAB zinc finger protein]
- AI4 CTL response to natural peptides with AI4-preferred motif (AI4 CTL): more weakly

Sequence: YFIENYAEL [A7]
- AI4 cytotoxic response towards peptide-pulsed RMA-S target cells (AI4 CTL): decreased

Sequence: TYEIAPVFV (listed as Mus musculus) [GAD65206, murine glutamic acid decarboxylase 65 206-214]
- IFN-γ spots in response to peptide [1]: unable to detect responses

Sequence: YFIENYLEL [Mim, YFIENYLEL]
- AI4 cytotoxic response towards peptide-pulsed RMA-S target cells (AI4 CTL): best response

Sequence: YFIENYLAL [A8]
- AI4 cytotoxic response towards peptide-pulsed RMA-S target cells (AI4 CTL): decreased

Sequence: FQDENYLYL (listed as Mus musculus) [FNL9, natural peptide of DMK and MRCKβ]
- AI4 CTL response to natural peptides with AI4-preferred motif (AI4 CTL): mirroring that obtained with the Mim peptide
- IFN-γ spots in response to peptide [1]: recognized by a detectable population of T cells

Sequence: LYLVCGERL (listed as Mus musculus) [INS-L9, G9L variant of murine insulin B15-23]
- binding to H-2K^d relative to insulin B15-23 (H-2K^d): more stable binding
- IFN-γ spots in response to peptide [1]: detectable

Sequence: SYQPLGDKV (listed as Mus musculus) [GAD65546, murine GAD65 546-554 peptide]
- IFN-γ spots in response to peptide [1]: unable to detect responses

Sequence: LYLVCGERI (listed as Mouse sp.) [INS-I9, G9I variant of murine insulin B15-23]
- binding to H-2K^d relative to insulin B15-23 (H-2K^d): more stable binding

Sequence: RLFENYIEL (listed as Mus musculus) [RIL9, natural peptide of exocyst complex component Sec5]
- AI4 CTL response to natural peptides with AI4-preferred motif (AI4 CTL): more weakly

Sequence: QYLENYLWM (listed as Mus musculus) [QM9, natural peptide of aquarius]
- AI4 CTL response to natural peptides with AI4-preferred motif (AI4 CTL): more weakly

Sequence: DMHENYMEM [DM9, natural peptide of X-linked lymphocyte regulated complex]
- AI4 CTL response to natural peptides with AI4-preferred motif (AI4 CTL): nonreacting

Sequence: RTSENYLEL [RLL9, natural peptide of MKIAA1569 protein]
- AI4 CTL response to natural peptides with AI4-preferred motif (AI4 CTL): nonreacting

Sequence: KYNKANVFL (peptide NRP-V7) [mimotope peptide recognized by 8.3-like T cells]
- IFN-γ spots in response to peptide [1]: detectable

Sequence: EVVESYMYL [EL9, natural peptide, similar to 1,2-α-mannosidase IC]
- AI4 CTL response to natural peptides with AI4-preferred motif (AI4 CTL): nonreacting

Sequence: YAIENYLEL [MimA2, YAIENYLEL]
- pEC50 (AI4 CTL; RMA-S target cells, E:T ratio of 40, lower peptide concentrations (FIG. 6B), read-out: half-maximal activity, AI4 cytotoxic response): 11.00
- AI4 cytotoxic response towards peptide-pulsed RMA-S target cells (AI4 CTL): strongest AI4 CTL response of all of the peptides

Sequence: VTLENYTHL [VTL9, natural peptide of hypothetical protein]
- AI4 CTL response to natural peptides with AI4-preferred motif (AI4 CTL): nonreacting

Sequence: YFIANYLEL [A4]
- AI4 cytotoxic response towards peptide-pulsed RMA-S target cells (AI4 CTL): significantly lower responses

Sequence: YFIENALEL [A6]
- AI4 cytotoxic response towards peptide-pulsed RMA-S target cells (AI4 CTL): significantly lower responses
